Measured values taken from patent US20150190416A1, “FILAGGRIN PRODUCTION PROMOTER, THERAPEUTIC AGENT FOR DISEASES ASSOCIATED WITH REDUCTION IN PRODUCTION OF FILAGGRIN, AND METHOD FOR SCREENING FOR SAID THERAPEUTIC AGENT” (KYOTO UNIVERSITY, priority 2012, published 2015).

Legend:
Format in all cases: cell-based, human
FLG monomer = FLG monomer in three-dimensional cultured skin, Western blotting (Example 11); details: 1 μM, immunoblotting
Procedure: In this example, the expression-increasing effect of Compound 1 on FLG monomer was examined by using a three-dimensional cultured skin. The expression of the FLG monomer was confirmed by Western blotting.
In this example, the same procedures as those in the steps 1) to 3) of Example 10 were conducted. It should be noted that as a medicament, D) Comparative Compound 3 (M344) was used, as well as A) Compound 1 and C) Comparative Compound 2 of Example 10.
4) The three-dimensional cultured skin obtained in the same manner as in the steps 1) to 3) of Example 10 was recovered, and was cut into pieces with scissors. Then, 100 μl of Lysis buffer (0.1 M Tris-HCl (pH 9.0), 6 M Urea, 1% 2-mercapto-ethanol, 1% SDS, 1 mM EDTA, and Protease inhibitor cocktail) were added and the cells were homogenized with an electrically powered pestle. The homogenized cells were centrifuged at 15,000 rpm at 4° C. for 20 minutes, and the supernatant was recovered to be used as a sample for measurement. The total protein in the sample was quantified by using a protein assay reagent (Bio-Rad Laboratories, Inc.) according to the manufacturer's protocol. The protein was adjusted so that each sample contained 15 μg protein/lane, and the samples were subjected to electrophoresis by SDS-PAGE (Invitrogen, NuPAE Novex Bis-Tris mini Gel 4 to 12%) under the conditions of 100 V and 2 hours. As a marker, Precision Plus Protein Standards (Bio-Rad Laboratories, Inc.) was used. The proteins separated by the electrophoresis were transferred to a PVDF membrane (blotting), and the expression of FLG monomer was confirmed by using an anti-FLG antibody (Filaggrin AKH1, Santa Crus). At that time, Anti-mouse IgG-HRP (GE Healthcare) was used as a secondary antibody, and Amersham ECL Plus Western Blotting Detection Reagents (GE Healthcare) was used as a color developer.

GPR142 [1] = test: Blocking effect by GPR142 RNAi in NHEK cells (Examples 5 and 6); details: GPR142 siRNA, compound 10 nM, 1 day
Procedure: In this example, it was confirmed that the expression-inducing effects of Compound 1 on GPR142 mRNA and FLG mRNA in NHEK cells were blocked by GPR142 RNAi.
1) 5×10^4 cells/well of NHEK cells (Invitrogen) were plated on a 24-well plate. Then, 500 μl of a culture medium containing a medium for proliferating normal human epidermal keratinocytes (HuMedia-KG2, KURABO INDUSTRIES LTD.) supplemented with hEGF (0.1 ng/ml), insulin (10 μg/ml), hydrocortisone (0.5 μg/ml), gentamycin (50 μg/ml), amphotericin B (50 ng/ml), and bovine brain pituitary extract (BPE) (0.4%, v/v) were added to the plate, and the cells were cultured under the conditions of 37° C. and 5% CO2.
2) After culture under the conditions of the step 1) for 1 day, the medium was exchanged for the culture medium of the step 1) to which CaCl2 (1.2 mM in terms of Ca) was further added as Ca, and culture was conducted under the conditions of 37° C. and 5% CO2. After culture for 1 day, the medium was exchanged for the same culture medium containing Ca, and culture was further conducted for 1 day.
3) The NHEK cells of the step 2) were transfected with 50 nM of siRNA per well of the 24-well plate by using a transfection reagent, Lipofectamine RNA Max (Invitrogen) according to the manufacturer's protocol.
The sequences of the used three kinds of GPR142 siRNAs and the sequences of the used control siRNAs (all the siRNAs are manufactured by Invitrogen) are described below.
4) After culture for 1 day after the transfection with siRNA in the step 3), the medium was exchanged for the culture medium of the step 1) to which a DMSO solution of Compound 1 was added at 10 nM per well, and culture was further conducted for 1 day. As a control, a solvent only (vehicle) was added.
5) An extraction reagent (TRIzol™, Invitrogen) was used, and according to the manufacturer's protocol, total RNA was extracted from each of cells treated with the medicament. A reverse transcriptase reagent (Prime Script™, Takara) was used, and according to the manufacturer's protocol, cDNA was prepared from the total RNA. Next, real-time PCR was conducted by using the following primers and SYBR™ Premix Ex Taq (Takara) with a CFX96 real-time PCR instrument according to the manufacturer's protocol, and the amounts of GPR142 mRNA and FLG mRNA expression were measured. The result of measurement is shown as a GAPDH ratio.
In this example, it was confirmed that the expression-inducing effects of Compound 2 or 3 on GPR142 mRNA and FLG mRNA in NHEK cells were blocked by GPR142 RNAi.
NHEK cells were transfected in the same manner as in Example 5 except that, in the steps 1) to 3) of Example 5, two kinds of GPR142 siRNAs and two kinds of control siRNAs, i.e., GPR142-1 (#HSS139493) and GPR142-3 (#HSS179846) and Control-1 (LOW GC, #129350-200), and Control-3 (HIGH GC, #129350-400) were used as GPR142 siRNAs and control siRNAs, respectively. After culture for 1 day after the transfection was conducted in the same manner as in the step 4) of Example 5, the medium was exchanged for the culture medium to which each of a DMSO solution of Compound 1, a DMSO solution of Compound 2, or a methanol solution of Compound 3 was added at 10 nM per well, and culture was further conducted for 1 day. As a control, a solvent only (vehicle) was added. Regarding each of cells treated with the medicament, real-time PCR was conducted to measure the amounts of GPR142 mRNA and FLG mRNA in the same manner as in the step 5) of Example 5. The results of the measurement are shown as a GAPDH ratio.

GPR142 [2] = test: Action on adenylate cyclase activity (cAMP) in GPR142-overexpressing HEK293T cells (Examples 8 and 9); details: GPR142-overexpressing HEK293T cells, 1,000 nM, forskolin 10 μM, IBMX 1 mM, 20 minutes
Procedure: In this example, the cAMP production-suppressing effect of Compound 1 was confirmed.
1) 6×10^4 cells/well of HEK293T cells were plated on a collagen-coated 24-well plate, a culture medium containing DMEM medium (Invitrogen) supplemented with penicillin (50 μg/ml), streptomycin (50 μg/ml), and fetal bovine serum (FBS) (10%, v/v) was added to the plate, and the cells were cultured under the conditions of 37° C. and 5% CO2.
2) A GPR142PCXN mammalian expression vector was prepared in the same manner as in the step 2) of Example 7.
3) After culture for 1 day under the conditions of the step 1), HEK293T cells were transfected with 0.2 μg of the GPR142PCXN mammalian expression vector per well by using a transfection reagent Fugene™ HD (Promega Corporation) according to the manufacturer's protocol. As a control, cells transfected only with the PCXN mammalian expression vector were used.
4) After culture for 1 day after the transfection described above, 1 mM of isobutylmethylxanthine (IBMX), which was a cAMP phosphodiesterase inhibitory substance, was added to HEK293T cells, and thereafter, the cells were cultured for 10 minutes at 37° C.
5) Next, the medium was exchanged for the culture medium to which 0.1 nM to 1000 nM of a DMSO solution of Compound 1, 10 μM of forskolin, and 1 mM of IBMX per well were added, and the cells were further cultured for 20 minutes at 37° C. As a control, a solvent (vehicle), 10 μM of forskolin, and 1 mM of IBMX were added.
6) The cells cultured in the step 5) were lysed by 0.1 mol/L of HCl. The cAMP concentration within the cells was measured by using Cyclic AMP EIA Kit (Cayman Chemical Company) according to the manufacturer's protocol. The result is shown as the ratio (%) of the cAMP concentration in the cells treated with Compound 1 with respect to the cAMP concentration in the control example defined as 100%.
In this example, the cAMP production-suppressing effect of Compound 2 or 3 was confirmed.
HEK293T cells were cultured in the same manner as in the steps 1) to 4) of Example 8. Next, the cells were cultured in the same manner as in the step 5) of Example 8 except that, in the step 5) of Example 8, each of a methanol solution of Compound 3, a DMSO solution of Compound 2, and a DMSO solution of Comparative Compound 2 was used at 1,000 nM per well instead of Compound 1. The cAMP concentration in the cultured cells was measured in the same manner as in the step 6) of Example 8.

| Structure (SMILES) | production of FLG monomer (FLG monomer) | induction of FLG mRNA expression: dependence on GPR142 (GPR142 [1]) | decrease of cAMP production (GPR142 [2]) |
| --- | --- | --- | --- |
| CN(C)c1ccc(C(=O)NCCCCCCC(=O)NO)cc1 [Comparative Compound 3, 4-Dimethylamino-N-(6-hydroxycarbamoylhexyl)benzamide, reference compound] | clear production of FLG monomer was not observed |  |  |
| COC(=O)CNC(Cc1ccccc1)C(=O)Nc1cc(-c2ccncc2)nn1C.Cl.Cl (stereo not drawn) [Compound 3, Methyl 2-(1-(1-methyl-3-(pyridine-4-yl)-1H-pyrazol-5-ylamino)-1-oxo-3-phenylpropan-2-ylamino)acetate dihydrochloride] |  | mediated by GPR142 | about 24% |
